Test results from ChEMBL document CHEMBL4041503, “A Hexacyclic, Iboga-Derived Monoterpenoid Indole with a Contracted Tetrahydroazepine C-Ring and Incorporation of an Isoxazolidine Moiety, a Seco-Corynanthean, an Aspidosperma-Aspidosperma Bisindole with Anticancer Properties, and the Absolute Configuration of the Pyridopyrimidine Indole Alkaloid, …” (J Nat Prod, 2016).

Columns and labels:
Format in all cases: functional, cell-based
MDA-MB-231 = test: Cytotoxicity against human MDA-MB-231 cells assessed as reduction in cell viability after 72 hrs by MTT assay; settings: MDA-MB-231, 72 h
HCT-116 = test: Cytotoxicity against human HCT116 cells assessed as reduction in cell viability after 72 hrs by MTT assay; settings: HCT-116, 72 h
LNCaP = test: Cytotoxicity against human LNCAP cells assessed as reduction in cell viability after 72 hrs by MTT assay
A549 = test: Cytotoxicity against human A549 cells assessed as reduction in cell viability after 72 hrs by MTT assay; settings: A549, 72 h
HT-29 = test: Cytotoxicity against human HT-29 cells assessed as reduction in cell viability after 72 hrs by MTT assay; settings: HT-29, 72 h
[1] = Cytotoxicity against human KB/S cells assessed as reduction in cell viability after 72 hrs by MTT assay
MCF7 = test: Cytotoxicity against human MCF7 cells assessed as reduction in cell viability after 72 hrs by MTT assay; settings: MCF7, 72 h
KB/VJ300 = test: Cytotoxicity against human KB/VJ300 cells assessed as reduction in cell viability after 72 hrs by MTT assay; settings: KB/VJ300, 72 h
PC-3 = test: Cytotoxicity against human PC3 cells assessed as reduction in cell viability after 72 hrs by MTT assay; settings: PC-3, 72 h

| Compound | IC50 (MDA-MB-231) [nM] | IC50 (HCT-116) [nM] | IC50 (LNCaP) [nM] | IC50 (A549) [nM] | IC50 (HT-29) [nM] | IC50 [1] [nM] | IC50 (MCF7) [nM] | IC50 (KB/VJ300) [nM] | IC50 (PC-3) [nM] |
| --- | --- | --- | --- | --- | --- | --- | --- | --- | --- |
| CC[C@]12C=CCN3CC[C@]4(C(=C(C(=O)OC)C1)Nc1cc5c(cc14)[C@@H]1[C@H](O5)[C@@H](O)[C@@]4(CC)CC(C(=O)OC)=C5Nc6c(cc(O)c(OC)c6OC)[C@@]56CCN1[C@@H]46)[C@@H]32 | 900 | 800 | 900 | 10000 | 1100 | 1500 | 600 | > 10000 | 200 |
| CC[C@@]12CC(C(=O)OC)=C3Nc4c(cc(O)c(OC)c4OC)[C@@]34CCN([C@@H]3c5cc6c(cc5O[C@@H]3[C@H]1O)NC1=C(C(=O)OC)C[C@]35CCO[C@H]3CCN3CC[C@@]16[C@@H]35)[C@@H]24 | 800 | 400 | 300 | > 10000 | 300 | 500 | 5900 | 7400 | 1100 |
| CC[C@]1(O)C[C@H]2CN(CCc3c([nH]c4ccccc34)[C@@](C(=O)OC)(c3cc4c(cc3OC)N(C=O)[C@H]3[C@@](O)(C(=O)OC)[C@H](OC(C)=O)[C@]5(CC)C=CCN6CC[C@]43[C@@H]65)C2)C1 [VINCRISTINE] | – | – | – | – | – | 2 | – | 5900 | – |
